# Measured values from publication PMC11191317, “PNSC928, a plant-derived compound, specifically disrupts CtBP2-p300 interaction and reduces inflammation in mice with acute respiratory distress syndrome” (Biology Direct, 2024).
# What was measured:
# [1] = test system: MPAEpiC and RAW264.7 cells; test: RT-qPCR of CtBP2/p300/NF-κB target genes in MPAEpiC and RAW264.7 cells cotreated with LPS and inhibitors; format: cell-based, mouse; settings: LPS cotreatment, 6 h; for Expression of IL-1B, IL-6, IL-15, IL-18, TNFA, NOD2, CCL2, CXCL10, CXCL12, MMP1, and STAT1 / Expression of other genes under investigation (CtBP2 and NF-κB targets): p300 inhibitors; for Expression levels of IL-1B, IL-6, IL-8, IL-15, TNFA, MIP2, CCR5, GM-CSF, VEGF, COX2, and iNOS / Expression of the other studied genes (CtBP2 and p300 targets): NF-κB inhibitors; for Expression of IL-1B, IL-6, IL-15, IL-18, TNFA, CDH1, CDKN1A, CDKN2A, CHRD, PAX6, and BAX / Expression of the remaining genes (p300 and NF-κB targets): CtBP2 inhibitors
# Method: (§1) For LPS treatment, different knockdown (KD) cell lines—Control^KD, CtBP2^KD, p300^KD, and p65^KD, all derived from MPAEpiC—were seeded in 12-well plates and cultured at 37 °C until reaching 80% confluence. The cells were then treated with 200 ng/mL of LPS for 6 h, washed three times with PBS, and subjected to the required experiments. For experiments involving inhibitors of CtBP2, p300, and NF-κB, as well as the compound PNSC928, MPAEpiC, RAW264.7, FL83B, TKPTS, and HL-1 cells were seeded in 12-well plates and cultured at 37 °C to reach 80% confluence. Cells were then cotreated with 200 ng/mL LPS along with varying concentrations of the following chemicals: MTOB (0, 5, 10, or 20 mM), NSC95397 (0, 10, 20, or 40 µM), C646 (0, 3, 6, or 12 µM), A-485 (0, 5, 10, or 20 nM), TPCA1 (0, 150, 300, or 600 nM), BOT64 (0, 1, 2, or 4 µM), or PNSC928 (0, 11.8, 23.6, or 47.2 µM). After 6 h of treatment, cells were washed three times with PBS before proceeding with further experiments.
# RNA was isolated from both cultured cells and mouse lung tissues utilizing the TRIzol Reagent (Invitrogen; Shanghai, China; #15,596,018) in adherence to the manufacturer’s protocol. For each sample, 500 ng of RNA was employed for the synthesis of complementary DNA (cDNA) leveraging the High-Capacity cDNA Reverse Transcription Kit (Thermo Fisher; #4,368,814). Gene expression quantification was carried out using the SYBR GreenER qPCR SuperMix Universal (Thermo Fisher; #1176202K) in combination with the specific primers delineated in Table S3. Subsequent analysis normalized the expression levels to β-Actin, utilizing the 2^−ΔΔCt method.
# The RAW264.7 cells were co-treated with LPS and the following compounds: 5 mM MTOB, 10 μM NSC95397, 3 μM C646, 5 nM A-485, 150 nM TPCA1, or 1 μM BOT64 for a duration of 6 hours. Subsequently, RNA isolation and RT-qPCR analysis were performed to quantify mRNA levels of various genes.
# The MPAEpiC cells were co-treated with LPS and the following compounds: 5 mM MTOB, 10 μM NSC95397, 3 μM C646, 5 nM A-485, 150 nM TPCA1, or 1 μM BOT64 for a duration of 6 hours. Subsequently, RNA isolation and RT-qPCR analysis were performed to quantify mRNA levels of various genes.
# [2] = test system: MPAEpiC, RAW264.7, FL83B, TKPTS, and HL-1 cells; test: Cell viability assay in normal cell lines; format: cell-based, mouse; settings: for Cell growth (cell viability) at lower doses: co-treated with LPS, MTOB 5 mM, NSC95397 10 µM, C646 3 µM, A-485 5 nM, TPCA1 150 nM, BOT64 1 µM; for Cell growth (cell viability assay): assessed every 24 h for 5 days
# Excerpt: Mouse pulmonary alveolar epithelial cells (MPAEpiC) were sourced from ScienCell Research Laboratories (Carlsbad, CA, USA; #M3200-57). The mouse macrophage cell line RAW 264.7 (#TIB-71), the mouse liver hepatocyte cell line FL83B (#CRL-2390), and the mouse kidney epithelial-like cell line TKPTS (#CRL-3361) were sourced from the American Type Culture Collection (ATCC) (Manassas, VA, USA). Additionally, the mouse cardiac muscle cell line HL-1 (SCC065) was acquired from Sigma-Aldrich. All cell lines were maintained in Dulbecco’s Modified Eagle Medium (DMEM) (Thermo Fisher; #A1048901) fortified with 10% fetal bovine serum (FBS) (Thermo Fisher; #A5256701) and a combination of 100 U/mL penicillin and streptomycin (Thermo Fisher; #15,140,122). Cells were cultured in a 37 °C incubator with 5% CO2, and the medium was changed every 2–3 days. For targeted gene manipulation, cells were transfected with gene-specific short hairpin RNAs (shRNAs) (Table S1) or plasmids (Table S2). Transfection was facilitated using the Lipofectamine 3000 Transfection Reagent (Thermo Fisher; #L3000001) as per the manufacturer’s recommended protocol.
# as §1
# Fig. 5 Determination of PNSC928 cytotoxicity and evaluation of PNSC928 effects on the expression levels of CtBP2/p300/NF-κB target genes. (A-E) Cell viability assessment. Five cell lines, including MPAEpiC (A), RAW264.7 (B), FL83B (C), TKPTS (D), and HL-1 (E) were treated with varying concentrations of PNSC928 ([…]). Cell viability was assessed every 24 h for 5 days. (F-I) Effects of PNSC928 on gene expression levels. The RAW264.7 cells were co-treated with LPS and PNSC928 (23.6 and 47.2 µM) for a duration of 6 h. Subsequently, RNA isolation and RT-qPCR analysis were performed to quantify mRNA levels of various genes. (F) The mRNA levels of IL-1B, IL-6, IL-15, IL-18, TNFA, and IFNG. (G) The mRNA levels of CDH1, CDKN1A, CDKN2A, CHRD, PAX6, and BAX. (H) The mRNA levels of NOD2, CCL2, CXCL10, CXCL12, MMP1, and STAT1 mRNA levels, (I) The mRNA levels of MIP2, CCR5, GM-CSF, COX2, and iNOS. n = 3 for each experiment. ns: no significant difference. **P < 0.01; ***P < 0.001
# Five cell lines (MPAEpiC, RAW264.7, FL83B, TKPTS, and HL-1) were treated with MTOB (5 and 10 mM), NSC95397 (10 and 20 μM), C646 (3 and 6 μM), A-485 (5 and 10 nM), TCPA1 (150 and 300 nM), and BOT-64 (1 and 2 μM). Cell viability was assessed every 24 hours for 5 days. n=3 for all experiments. *P<0.05.
structure (smiles),measurement,setting,value
CNC(=O)Nc1ccc2c(c1)CC[C@@]21OC(=O)N(CC(=O)N(Cc2ccc(F)cc2)[C@@H](C)C(F)(F)F)C1=O [A-485],"Expression of IL-1B, IL-6, IL-15, IL-18, TNFA, NOD2, CCL2, CXCL10, CXCL12, MMP1, and STAT1",[1],significantly modulated
same,Expression of other genes under investigation (CtBP2 and NF-κB targets),[1],no discernible impact
same,Cell growth (cell viability) at lower doses,[2],notable inhibition of cell growth
CC1(C)CC(=O)c2sc(=Nc3ccccc3)oc2C1 [BOT64],"Expression levels of IL-1B, IL-6, IL-8, IL-15, TNFA, MIP2, CCR5, GM-CSF, VEGF, COX2, and iNOS",[1],dose-dependent alteration
same,Expression of the other studied genes (CtBP2 and p300 targets),[1],without affecting
same,Cell growth (cell viability) at lower doses,[2],notable inhibition of cell growth
CC1=NN(c2ccc(C(=O)O)cc2)C(=O)/C1=C\c1ccc(-c2cc(C)c(C)cc2[N+](=O)[O-])o1 [C646],"Expression of IL-1B, IL-6, IL-15, IL-18, TNFA, NOD2, CCL2, CXCL10, CXCL12, MMP1, and STAT1",[1],significantly modulated
same,Expression of other genes under investigation (CtBP2 and NF-κB targets),[1],no discernible impact
same,Cell growth (cell viability) at lower doses,[2],notable inhibition of cell growth
CSCCC(=O)C(=O)O [MTOB],"Expression of IL-1B, IL-6, IL-15, IL-18, TNFA, CDH1, CDKN1A, CDKN2A, CHRD, PAX6, and BAX",[1],dose-dependent reversal
same,Expression of the remaining genes (p300 and NF-κB targets),[1],remained relatively unchanged
same,Cell growth (cell viability) at lower doses,[2],notable inhibition of cell growth
O=C1C(SCCO)=C(SCCO)C(=O)c2ccccc21 [NSC95397],"Expression of IL-1B, IL-6, IL-15, IL-18, TNFA, CDH1, CDKN1A, CDKN2A, CHRD, PAX6, and BAX",[1],dose-dependent reversal
same,Expression of the remaining genes (p300 and NF-κB targets),[1],remained relatively unchanged
same,Cell growth (cell viability) at lower doses,[2],notable inhibition of cell growth
CC(=CCCC1=CCC(C2COC(=O)C2)OC1O)CCC1=C(C)CCCC1(C)C (centres unmarked) [PNSC928],Cell growth (cell viability assay),[2]; PNSC928 at 47.2 µM,slight inhibition of cell growth
same,Cell growth (cell viability assay),"[2]; PNSC928 at lower concentrations (≤ 23.6 µM), all tested cell lines",did not inhibit cell growth
NC(=O)Nc1sc(-c2ccc(F)cc2)cc1C(N)=O [TPCA1],"Expression levels of IL-1B, IL-6, IL-8, IL-15, TNFA, MIP2, CCR5, GM-CSF, VEGF, COX2, and iNOS",[1],dose-dependent alteration
same,Expression of the other studied genes (CtBP2 and p300 targets),[1],without affecting
same,Cell growth (cell viability) at lower doses,[2],notable inhibition of cell growth
